Results as given in patent US20220313629A1, “TRANSIENT POTENTIAL MELASTATIN 8 (TRPM8) ANTAGONISTS AND RELATED METHODS” (MARSHALL UNIVERSITY RESEARCH CORPORATION, priority 2019, published 2022).
Values joined by “and” are separate entries in the source; they are usually repeats but may differ in a detail not shown here. Equal values may be shown once. Read-outs that look alike come from different tables or passages of the source.

What was measured:
rat and human TRPM8 = conditions: literature; read-out: IC50 values against menthol, icilin and cold activation at rat and human TRPM8; cited from earlier work
TRPM8 [1] = molecular target: T1, TRPM8 (Homo sapiens, UniProt Q7Z2W7); conditions: literature value; read-out: IC50 in whole-cell patch-clamp assay (reported); cited from earlier work
Target sequence in this assay (Q7Z2W7 whole entry): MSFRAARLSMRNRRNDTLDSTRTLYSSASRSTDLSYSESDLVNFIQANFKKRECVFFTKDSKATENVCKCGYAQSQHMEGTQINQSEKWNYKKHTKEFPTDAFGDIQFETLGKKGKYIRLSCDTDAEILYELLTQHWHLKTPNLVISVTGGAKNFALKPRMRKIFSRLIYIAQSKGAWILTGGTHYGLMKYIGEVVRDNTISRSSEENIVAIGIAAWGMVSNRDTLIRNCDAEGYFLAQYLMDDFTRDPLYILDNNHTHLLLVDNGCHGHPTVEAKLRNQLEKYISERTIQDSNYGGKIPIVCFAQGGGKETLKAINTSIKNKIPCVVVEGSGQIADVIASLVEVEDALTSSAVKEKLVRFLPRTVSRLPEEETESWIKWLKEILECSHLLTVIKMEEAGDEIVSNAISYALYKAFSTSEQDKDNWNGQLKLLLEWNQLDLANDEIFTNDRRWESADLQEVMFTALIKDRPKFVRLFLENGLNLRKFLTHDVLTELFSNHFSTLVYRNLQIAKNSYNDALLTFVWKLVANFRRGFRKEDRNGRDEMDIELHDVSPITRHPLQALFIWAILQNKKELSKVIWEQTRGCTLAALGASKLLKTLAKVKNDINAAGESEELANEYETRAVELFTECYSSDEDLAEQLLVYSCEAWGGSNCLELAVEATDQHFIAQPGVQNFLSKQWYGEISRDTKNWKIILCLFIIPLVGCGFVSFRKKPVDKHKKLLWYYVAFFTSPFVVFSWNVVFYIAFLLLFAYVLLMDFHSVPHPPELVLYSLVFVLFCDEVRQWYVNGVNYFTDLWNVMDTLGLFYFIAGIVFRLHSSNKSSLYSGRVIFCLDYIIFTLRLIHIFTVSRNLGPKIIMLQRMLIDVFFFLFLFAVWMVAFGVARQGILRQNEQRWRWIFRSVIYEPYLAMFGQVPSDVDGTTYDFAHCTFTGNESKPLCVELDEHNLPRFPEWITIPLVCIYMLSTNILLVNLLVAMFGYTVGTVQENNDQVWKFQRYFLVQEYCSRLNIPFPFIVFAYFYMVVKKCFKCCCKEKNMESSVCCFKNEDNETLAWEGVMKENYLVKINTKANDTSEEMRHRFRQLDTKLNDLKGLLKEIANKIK

TRPM8 [2] = molecular target: T1, TRPM8; conditions: cited from earlier work
Target sequence in this assay (Q7Z2W7 whole entry): as above

TRPM8 [3] = molecular target: T1, TRPM8; experiment: TRPM8 antagonist activity by Fura-2 Ca2+ imaging in HEK-293 cells stably expressing human TRPM8; format: cell-based; conditions: inhibition of icilin (500 nM)-evoked Ca2+ entry; HEK-293 cells stably expressing hTRPM8; mean ± SEM, three independent experiments; read-out: Functional Activity hTRPM8 potency IC50 ± SEM
Target sequence in this assay (Q7Z2W7 whole entry): as above

human TRPA1 [4] = molecular target: T2, human TRPA1 (Homo sapiens, UniProt O75762); experiment: TRPA1 agonist and antagonist Ca2+ flux assay (FLIPR, Fluo-8) in HEK293 cells stably expressing human TRPA1; format: cell-based; conditions: for % Activation Mean ± SEM (n = 5), TRPA1 antagonist data (Percentage Inhibition Normalized to EC80 Control): vs EC80 of AITC
human TRPA1 [5] = molecular target: T2, human TRPA1; conditions: vs. the effect of 80 μM AITC; read-out: IC50 at TRPA1 reported by Klionsky and colleagues; cited from earlier work
[6] = Stability in liver microsomes; format: in vitro ADME; conditions: mouse liver microsomes; CLint = k/P
Protocol: Stability in liver microsomes. Male CD-1 mouse liver microsomes (Lot#1710069) were purchased from XenoTech. The reaction mixture, minus NADPH, was prepared as described below. Compound 14 was added into the reaction mixture at a final concentration of 1 μM. The control compound, testosterone, was run simultaneously with Compound 14 in a separate reaction. An aliquot of the reaction mixture (without cofactor) was equilibrated in a shaking water bath at 37° C. for 3 minutes. The reaction was initiated by the addition of the cofactor, and the mixture was incubated in a shaking water bath at 37° C. Aliquots (100 μL) were withdrawn at 0, 10, 20, 30, and 60 minutes. Compound 14 and testosterone samples were immediately combined with 400 μL of ice-cold 50/50 acetonitrile (ACN)/H2O containing 0.1% formic acid and internal standard to terminate the reaction. The samples were then mixed and centrifuged to precipitate proteins. All samples were assayed by LC-MS/MS using electrospray ionization. […] are compared to the PARR at time 0 to determine the percent remaining at each time point. Half-lives and intrinsic clearance were calculated using GraphPad software, fitting to a single-phase exponential decay equation.
In vitro metabolic stability. Compound 14 was evaluated for metabolic stability in mouse liver microsomes by Absorption Systems (Exton, Pa.), by determining the percent remaining at 0, 10, 20, 30 and 60 minutes when incubated with mouse liver microsomes in the presence of NADPH. The half-life (t1/2) and in vitro intrinsic clearance (CLint) of Compound 14 was calculated, in addition to the control (testosterone).

TRPM8 [7] = molecular target: T1, TRPM8; conditions: different cell type (CHO vs HEK) or species (human versus mouse); read-out: previously-reported EC50 values; cited from earlier work
Target sequence in this assay (Q7Z2W7 whole entry, species assumed): as the sequence (Q7Z2W7 whole entry) above

TRPM8 [8] = molecular target: T1, TRPM8; experiment: TRPM8 agonist (intrinsic) activity by Fura-2 Ca2+ imaging in HEK-293 cells stably expressing human TRPM8; format: cell-based; conditions: HEK-293 cells stably expressing hTRPM8; read-out: EC50 (agonist-evoked Ca2+ influx at hTRPM8)
Target sequence in this assay (Q7Z2W7 whole entry): as above

T2 sequence (O75762 whole entry): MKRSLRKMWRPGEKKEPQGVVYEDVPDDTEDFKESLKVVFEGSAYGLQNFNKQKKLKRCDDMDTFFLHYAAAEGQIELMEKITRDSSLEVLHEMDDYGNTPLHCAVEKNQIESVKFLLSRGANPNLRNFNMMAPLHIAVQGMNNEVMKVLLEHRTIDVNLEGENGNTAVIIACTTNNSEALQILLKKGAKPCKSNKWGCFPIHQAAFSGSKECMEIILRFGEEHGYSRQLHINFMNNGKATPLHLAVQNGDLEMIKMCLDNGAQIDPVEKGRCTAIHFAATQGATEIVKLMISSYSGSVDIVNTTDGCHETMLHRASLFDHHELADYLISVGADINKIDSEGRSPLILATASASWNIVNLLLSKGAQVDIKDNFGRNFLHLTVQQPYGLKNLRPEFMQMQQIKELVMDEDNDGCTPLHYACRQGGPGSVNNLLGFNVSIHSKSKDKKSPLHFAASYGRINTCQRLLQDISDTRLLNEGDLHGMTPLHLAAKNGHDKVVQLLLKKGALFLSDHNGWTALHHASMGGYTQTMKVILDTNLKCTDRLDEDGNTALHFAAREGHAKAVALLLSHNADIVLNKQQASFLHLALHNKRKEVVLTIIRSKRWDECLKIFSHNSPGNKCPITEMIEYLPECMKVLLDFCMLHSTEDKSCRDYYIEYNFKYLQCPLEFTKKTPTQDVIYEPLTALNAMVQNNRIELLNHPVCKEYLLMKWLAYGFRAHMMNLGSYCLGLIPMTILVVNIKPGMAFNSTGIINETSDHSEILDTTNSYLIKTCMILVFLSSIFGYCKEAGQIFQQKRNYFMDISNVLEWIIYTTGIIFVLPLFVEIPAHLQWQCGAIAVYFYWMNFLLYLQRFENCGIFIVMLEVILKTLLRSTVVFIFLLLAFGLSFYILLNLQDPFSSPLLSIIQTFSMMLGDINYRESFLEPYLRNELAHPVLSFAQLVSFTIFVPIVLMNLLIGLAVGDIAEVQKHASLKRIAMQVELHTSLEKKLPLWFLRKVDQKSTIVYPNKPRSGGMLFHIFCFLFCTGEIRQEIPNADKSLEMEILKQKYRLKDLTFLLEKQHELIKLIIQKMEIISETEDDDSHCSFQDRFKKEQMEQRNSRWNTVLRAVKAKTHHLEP

C[C@H](NC(=O)N1CCc2cccnc2[C@H]1c1ccc(C(F)(F)F)cc1)C(F)(F)F [AMG2850]
IC50 (rat and human TRPM8): 7 to 156 nM

COc1cc(CN(CCN)C(=O)OC(C)c2ccccc2)ccc1OCc1ccccc1 (stereo not drawn) [PBMC]
IC50 (TRPM8 [1]): 0.4 to 0.6 nM

C[C@H](c1ccc(F)cc1)N(Cc1cccc(C(=O)O)c1)C(=O)c1cnc2ccccc2c1 [PF-05105679]
IC50 (TRPM8 [2]; literature, read-out: IC50, inhibition of WS-12-mediated activation at human TRPM8): 181 ± 7.21 nM
IC50 (TRPM8 [2]; literature, read-out: IC50, inhibition of voltage-mediated activation at human TRPM8): 103 ± 29.4 nM
IC50 (TRPM8 [2]; literature, read-out: hTRPM8 IC50 (reported Ca2+ flux activity)): 181 nM

O=C(O)c1ccc(S(=O)(=O)N(Cc2ccc(OC(F)(F)F)cc2)c2ncc(C(F)(F)F)cc2Cl)cc1 [RQ-00203078, reference compound]
IC50 (TRPM8 [3]): 2.96 nM and 3 nM
IC50 (TRPM8 [2]; HEK cells expressing hTRPM8, read-out: IC50 previously reported against 30 μM menthol-evoked Ca2+ influx): ~8 nM
reported potency at hTRPM8 (TRPM8 [2]; literature): < 10 nM

N.N.N.N.N.N.N.N.N.N.N.N.N.N.[Cl-].[Cl-].[Cl-].[Cl-].[Cl-].[Cl-].[O-2].[O-2].[Ru+3].[Ru+3].[Ru+4] [Ruthenium Red, reference compound]
% Activation Mean ± SEM (n = 5), TRPA1 antagonist data (Percentage Inhibition Normalized to EC80 Control) (human TRPA1 [4]; 3 nM): −6.0 ± 1.2%
% Activation Mean ± SEM (n = 5), TRPA1 antagonist data (Percentage Inhibition Normalized to EC80 Control) (human TRPA1 [4]; 10 nM): 1.9 ± 2.4%
% Activation Mean ± SEM (n = 5), TRPA1 antagonist data (Percentage Inhibition Normalized to EC80 Control) (human TRPA1 [4]; 30 nM): 5.8 ± 4.6%
% Activation Mean ± SEM (n = 5), TRPA1 antagonist data (Percentage Inhibition Normalized to EC80 Control) (human TRPA1 [4]; 100 nM): 15.7 ± 9.8%
% Activation Mean ± SEM (n = 5), TRPA1 antagonist data (Percentage Inhibition Normalized to EC80 Control) (human TRPA1 [4]; 300 nM): 91.1 ± 2.9%
% Activation Mean ± SEM (n = 5), TRPA1 antagonist data (Percentage Inhibition Normalized to EC80 Control) (human TRPA1 [4]; 1,000 nM): 100.9 ± 0.1%
% Activation Mean ± SEM (n = 5), TRPA1 antagonist data (Percentage Inhibition Normalized to EC80 Control) (human TRPA1 [4]; 3,000 nM): 100.9 ± 0.7%
% Activation Mean ± SEM (n = 5), TRPA1 antagonist data (Percentage Inhibition Normalized to EC80 Control) (human TRPA1 [4]; 10,000 nM): 100.8 ± 0.3%
IC50 (human TRPA1 [4]; AITC 10 μM, read-out: IC50, blockade of AITC-activated hTRPA1 responses): 162 ± 33 nM
IC50 (human TRPA1 [5]): 29 ± 6 nM

C[C@]12CC[C@H]3[C@@H](CCC4=CC(=O)CC[C@@]43C)[C@@H]1CC[C@@H]2O [Testosterone, reference compound]
CLint (mL/min/mg protein) [6]: 0.372 mL/min/mg protein

O=C1NC(c2cccc([N+](=O)[O-])c2)=CCN1c1ccccc1O [icilin, 3-(2-hydroxyphenyl)-6-(3-nitrophenyl)-3,4-dihydropyrimidin-2(1H)-one]
EC50 (TRPM8 [7]): 120 to 200 nM
EC50 (TRPM8 [8]): ~70 nM and 74 nM
